Data as given in patent US10144758B2, “Deuterated bile acids” (Metselex, Inc., priority 2013, dated 2018).

Test system: primary rat hepatocytes
Experiment: DCA-induced apoptosis, nuclear fragmentation by Hoechst staining
Assay type: cell-based
Conditions: for prevention of nuclear fragmentation: 50 μM DCA, 100 μM compound pretreatment, FIG. 7C
Procedure: Primary rat hepatocytes were isolated from male rats (100-150 grams) by collagenase perfusion (as described by Solá S, et al., 2003, Journal of Biological Chemistry 278: 48831-48838)). Briefly, rats were anesthetized with phenobarbital sodium (100 mg/kg body weight) injected into the peritoneal cavity. After administration of heparin (200 units/kg body weight) in the tail vein, the animal's abdomen was opened and the portal vein exposed and cannulated. The liver was then perfused at 37° C. in situ with a calcium-free Hanks' Balanced Salt Solution (HBSS) for about 10 minutes, and then with 0.05% collagenase type IV in calcium-present HBSS for another 10 minutes. Hepatocyte suspensions were obtained by passing collagenase-digested livers through 125 μm gauze and washing cells in Complete William's E medium (William's E medium, Sigma-Aldrich Corp., St Louis, Mo., USA) supplemented with 26 mM sodium bicarbonate, 23 mM HEPES, 0.01 units/mL insulin, 2 mM L-glutamine, 10 nM dexamethasone, 100 units/mL penicillin, and 10% heat-inactivated fetal bovine serum (Invitrogen Corp., Carlsbad, Calif., USA). Viable primary rat hepatocytes were enriched by low-speed centrifugation at 200 g for 3 minutes. Cell viability was determined by trypan blue exclusion and was typically 80-85%. After isolation, hepatocytes were resuspended in Complete William's E medium and plated on PrimariaTM tissue culture dishes (BD Biosciences, San Jose, Calif., USA) at 5×10^4 cells/cm^2. Cells were maintained at 37° C. in a humidified atmosphere of 5% CO2 for 6 hours to allow attachment. […] Fluorescence was visualized using an Axioskop fluorescence microscope (Carl Zeiss GmbH). Blue-fluorescent nuclei were scored blindly and categorized according to the condensation and staining characteristics of chromatin. […] Five random microscopic fields per sample containing approximately 150 nuclei were counted, and mean values expressed as the percentage of apoptotic nuclei. […] Results are expressed as means±SEM of at least three experiments. *p<0.01 from control; § p<0.05 and †p<0.01 from respective DCA.

Compound: 7,8-[^2H]-3α,7α-dihydroxy-5β-cholan-24-oic acid/7-[^2H]-3α,7α-dihydroxy-5β-cholan-24-oic acid [Compound 5]
- prevention of nuclear fragmentation: ~65%
- more effective than UDCA at reducing the percentage of apoptotic cells (DCA, Compound 5 versus UDCA): ~15%

Compound: C[C@H](CCC(=O)O)[C@H]1CC[C@H]2[C@@H]3[C@@H](O)C[C@@H]4C[C@H](O)CC[C@]4(C)[C@H]3CC[C@]12C [UDCA, Ursodeoxycholic acid, reference compound]
- prevention of nuclear fragmentation: ~50%
